Our source for the TGI values is PubChem BioAssay (NCI).

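Five compound concentrations were applied to cells in 96-well plates for 48 hours; endpoints were derived by simple linear interpolation of the resulting dose-response curve. The concentration for full growth arrest is given as TGI.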

Among the test systems are MOLT-4 leukemia; LOX IMVI melanoma; SN12C renal; MCF7 breast; MDA-MB-231 breast; UACC-257 melanoma; EKVX NSCLC; OVCAR-3 ovarian; HCT-116 colon; U251 CNS; NCI/ADR-RES ovarian; CAKI-1 renal; TK-10 renal; MDA-N; SK-OV-3 ovarian; SR leukemia; CCRF-CEM leukemia; HOP-62 NSCLC.
Holding throughout (test): growth of human tumour cells (NCI), 48 h

Turning to `C#CCn1ncc2c(SC)ncnc21`, the TGI with MOLT-4 leukemia, in the test on LOX IMVI melanoma, in the test on SN12C renal, in the test on MCF7 breast, with MDA-MB-231 breast and in the test with UACC-257 melanoma was greater than 100 µM each time. For the same compound, the TGI in the test on EKVX NSCLC, in the test with OVCAR-3 ovarian, with HCT-116 colon, with U251 CNS, in the test on NCI/ADR-RES ovarian and with CAKI-1 renal was greater than 100 µM in each case. Further, the TGI in the test on TK-10 renal, in the test with MDA-N, in the test with SK-OV-3 ovarian, in the test on SR leukemia, with CCRF-CEM leukemia and in the test with HOP-62 NSCLC was greater than 100 µM in each case.
Turning to `COC(=O)CC1C(COC(C)=O)OC(n2cc(C)c(=O)[nH]c2=O)C1OC(C)=O` (stereo not drawn), the TGI in the test on MOLT-4 leukemia, in the test with LOX IMVI melanoma, in the test with SN12C renal, in the test with MCF7 breast, in the test with MDA-MB-231 breast and with UACC-257 melanoma was greater than 100 µM each time. The TGI in the test with EKVX NSCLC, with OVCAR-3 ovarian, in the test on HCT-116 colon, with U251 CNS, in the test on NCI/ADR-RES ovarian and in the test on CAKI-1 renal was greater than 100 µM in each case. Further, the TGI in the test on TK-10 renal, in the test with MDA-N, in the test with SK-OV-3 ovarian, in the test on SR leukemia, in the test with CCRF-CEM leukemia and with HOP-62 NSCLC was greater than 100 µM in each case.
As to `Cc1ncc([N+](=O)[O-])n1CCN(C)C(=O)CCCn1ccnc1[N+](=O)[O-]`, the TGI with MOLT-4 leukemia, in the test on LOX IMVI melanoma, with SN12C renal, with MCF7 breast, in the test with MDA-MB-231 breast and in the test with UACC-257 melanoma was greater than 100 µM throughout. Also, the TGI in the test with EKVX NSCLC, in the test with OVCAR-3 ovarian, in the test on HCT-116 colon, with U251 CNS, in the test with NCI/ADR-RES ovarian and in the test with CAKI-1 renal was greater than 100 µM each time. Moreover, the TGI in the test with TK-10 renal, in the test on MDA-N, in the test with SK-OV-3 ovarian, with SR leukemia, in the test with CCRF-CEM leukemia and with HOP-62 NSCLC was greater than 100 µM in each case.
With `O=Cc1c2ccccc2n2ccc3c4ccccc4[nH]c3c12`, the TGI in the test with MOLT-4 leukemia, in the test on LOX IMVI melanoma, with SN12C renal, with MCF7 breast, in the test on MDA-MB-231 breast and in the test with UACC-257 melanoma was greater than 10 µM each time. In addition, the TGI in the test with EKVX NSCLC, in the test on OVCAR-3 ovarian, in the test with HCT-116 colon, in the test with U251 CNS, in the test on NCI/ADR-RES ovarian and in the test with CAKI-1 renal was greater than 10 µM throughout. Also, the TGI in the test on TK-10 renal, with MDA-N, with SK-OV-3 ovarian, in the test on SR leukemia, in the test on CCRF-CEM leukemia and in the test on HOP-62 NSCLC was greater than 10 µM throughout.
For `S=c1nc(Cc2ccc(Cl)cc2)[nH][nH]1`, the TGI in the test on MOLT-4 leukemia, in the test with LOX IMVI melanoma, in the test with SN12C renal, in the test with MCF7 breast, with MDA-MB-231 breast and in the test with UACC-257 melanoma was greater than 100 µM each time. Also, the TGI with EKVX NSCLC, in the test with OVCAR-3 ovarian, in the test on HCT-116 colon, in the test with U251 CNS, in the test with NCI/ADR-RES ovarian and in the test with CAKI-1 renal was greater than 100 µM in each case. In addition, the TGI with TK-10 renal, with MDA-N, in the test with SK-OV-3 ovarian, in the test with SR leukemia, in the test on CCRF-CEM leukemia and with HOP-62 NSCLC was greater than 100 µM throughout.
Consider `COc1ccc(NC(=O)CC(=O)N2N=C(c3ccccc3)C(N=Nc3ccc(S(=O)(=O)CCOS(=O)(=O)O)cc3)C2=O)cc1` (stereo not drawn), for which the TGI with MOLT-4 leukemia, with LOX IMVI melanoma, in the test on SN12C renal, in the test on MCF7 breast, in the test on MDA-MB-231 breast and in the test on UACC-257 melanoma was greater than 100 µM throughout. Moreover, the TGI in the test with EKVX NSCLC, in the test on OVCAR-3 ovarian, with HCT-116 colon, with U251 CNS, in the test with NCI/ADR-RES ovarian and in the test with CAKI-1 renal was greater than 100 µM each time. The TGI in the test on TK-10 renal, with MDA-N, in the test with SK-OV-3 ovarian, with SR leukemia, in the test with CCRF-CEM leukemia and with HOP-62 NSCLC was greater than 100 µM throughout.
Take `CC(=O)NNc1nc(C)c(C(/C=C/c2ccc([N+](=O)[O-])cc2)=N/N)s1`: the TGI was greater than 100 µM with MOLT-4 leukemia; greater than 100 µM in the test on LOX IMVI melanoma; greater than 100 µM in the test on SN12C renal; greater than 100 µM in the test with MCF7 breast; 95.4 µM in the test with MDA-MB-231 breast; greater than 100 µM with UACC-257 melanoma. Also, the TGI with EKVX NSCLC, in the test with OVCAR-3 ovarian, with HCT-116 colon, with U251 CNS, in the test with NCI/ADR-RES ovarian and with CAKI-1 renal was greater than 100 µM in each case. In addition, the TGI with TK-10 renal, with MDA-N, with SK-OV-3 ovarian, with SR leukemia, with CCRF-CEM leukemia and in the test on HOP-62 NSCLC was greater than 100 µM throughout.
Take `CCCN1CC=C(c2cc(C(=O)OCC)[nH]c2-c2cc(C)no2)C1=O`: the TGI in the test on MOLT-4 leukemia, in the test with LOX IMVI melanoma, in the test with SN12C renal, in the test on MCF7 breast, with MDA-MB-231 breast and in the test with UACC-257 melanoma was greater than 100 µM in each case. Also, the TGI with EKVX NSCLC, in the test with OVCAR-3 ovarian, in the test on HCT-116 colon, in the test with U251 CNS, in the test with NCI/ADR-RES ovarian and with CAKI-1 renal was greater than 100 µM in each case. Also, the TGI in the test on MDA-N, in the test with SK-OV-3 ovarian, in the test with SR leukemia, in the test with CCRF-CEM leukemia and in the test on HOP-62 NSCLC was greater than 100 µM in each case.
